Test results from ChEMBL document CHEMBL6177970, “Semisynthetic Derivatives of Perovskone: Development of a Promising Class of Antiprotozoal Lead Compounds” (J Nat Prod, 2025).

Key:
[1] = system: Plasmodium falciparum; assay: Antiplasmodial activity against Plasmodium falciparum NF54 intraerythrocytic forms measured after 72 hrs by 3H-hypoxanthine based liquid scintillation counting analysis; assay type: functional, organism-based
[2] = Selectivity index, ratio of IC50 for cytotoxicity against rat myoblast L6 cells to IC50 for antiprotozoal activity against Trypanosoma brucei rhodesiense STIB900 trypomastigotes; assay type: toxicity, cell-based; settings: read-out: Selectivity Index
[3] = system: Leishmania donovani; assay: Antileishmanial activity against axenically grown amastigotes Leishmania donovani MHOM-ET-67/L82 measured after 72 hrs by inverted microscopy; assay type: functional, organism-based; settings: MHOM-ET-67/L82, 72 h
[4] = system: Trypanosoma cruzi; assay: Antiprotozoal activity against Trypanosoma cruzi Tulahuen C2C4 intracellular amastigotes measured after 96 hrs by inverted microscopy; assay type: functional, organism-based; settings: Tulahuen C2C4, 96 h
[5] = Selectivity index, ratio of IC50 for cytotoxicity against rat myoblast L6 cells to IC50 for antiplasmodial activity against Plasmodium falciparum NF54 intraerythrocytic forms; assay type: toxicity, cell-based; settings: read-out: Selectivity Index
[6] = Selectivity index, ratio of IC50 for cytotoxicity against rat myoblast L6 cells to IC50 for antileishmanial activity against axenically grown amastigotes Leishmania donovani MHOM-ET-67/L82; assay type: toxicity, cell-based; settings: read-out: Selectivity Index
[7] = system: Trypanosoma brucei rhodesiense; assay: Antiprotozoal activity against Trypanosoma brucei rhodesiense STIB900 trypomastigotes measured after 72 to 74 hrs; assay type: functional, organism-based
[8] = Selectivity index, ratio of IC50 for cytotoxicity against rat myoblast L6 cells to IC50 for antiprotozoal activity against Trypanosoma cruzi Tulahuen C2C4 intracellular amastigotes; assay type: toxicity, cell-based; settings: read-out: Selectivity Index
[9] = Cytotoxicity against rat myoblast L6 cells measured after 72 hrs by inverted microscopy; assay type: toxicity, cell-based

Row | IC50 [1] | IC50 [3] | IC50 [4] | IC50 [7] | SMILES | selectivity ratio [2] | selectivity ratio [5] | selectivity ratio [6] | selectivity ratio [8] | IC50 at 72 h [9]
1 | 5.6 µM | 0.44 µM | 7 µM | 24.4 µM | CC(C)C1=C2OC(C)(C)[C@@H]3CC4[C@H](C)[C@@H](OC(=O)CCC(=O)O)C[C@@]5(CC[C@H]6C(C)(C)CCC[C@]67C[C@]45[C@@]23O7)C1=O (some centres undefined) | 0.4 | 1.7 | 22 | 1.4 | 9.7 µM
2 | 0.89 µM | 27.2 µM | 15.6 µM | 32.1 µM | CC1=CC[C@]23CC[C@H]4C(C)(C)CCC[C@]45C[C@]24C1=C[C@H]1C(C)(C)OC(=C(C(C)C)C3=O)[C@@]14O5 | 0.7 | 26.8 | 0.9 | 1.5 | 23.9 µM
3 | 0.08 µM | 6 µM | 8.4 µM | 10.1 µM | CC1=CC[C@]23CC[C@H]4C(C)(C)CCC[C@]45C[C@]24[C@@]1(O)C[C@H]1C(C)(C)OC(=C(C(C)C)C3=O)[C@@]14O5 | 0.7 | 80 | 1.1 | 0.8 | 6.9 µM

Continued, compound first:

Row | SMILES | IC50 [1] | IC50 [3] | IC50 [4] | IC50 [7] | selectivity ratio [2] | selectivity ratio [5] | selectivity ratio [6] | selectivity ratio [8] | IC50 at 72 h [9]
4 | CC1=C2C[C@H]3C(C)(C)OC4=C(C(C)C)C(=O)[C@@]5(C=C1)CC[C@H]1C(C)(C)CCC[C@]16C[C@]25[C@@]43O6 | 0.03 µM | 14.3 µM | 7.1 µM | 58.6 µM | 0.4 | 843 | 1.9 | 3.6 | 26.3 µM
5 | CC(C)C1=C2OC(C)(C)[C@@H]3CC4[C@H](C)[C@@H](O)C[C@@]5(CC[C@H]6C(C)(C)CCC[C@]67C[C@]45[C@@]23O7)C1=O (some centres undefined) | 2.6 µM | 41.2 µM | 33.3 µM | 25.8 µM | 5.3 | 53.1 | 3.3 | 4.1 | 136 µM
6 | O=C(Cn1ccnc1[N+](=O)[O-])NCc1ccccc1 [BENZNIDAZOLE] | – | – | 2.61 µM | – | – | – | – | – | –
7 | CC(C)C1=C2OC(C)(C)[C@@H]3CC4[C@@H](C)[C@H](B(F)F)C[C@@]5(CC[C@H]6C(C)(C)CCC[C@]67C[C@]45[C@@]23O7)C1=O (some centres undefined) | 0.8 µM | 4.8 µM | 12 µM | 24.4 µM | 1.4 | 43.8 | 7.3 | 2.9 | 35 µM
8 | CC(C)C1=C2OC(C)(C)[C@@H]3CC4[C@@H](C)[C@H](O)C[C@@]5(CC[C@H]6C(C)(C)CCC[C@]67C[C@]45[C@@]23O7)C1=O (some centres undefined) | 5.1 µM | 10 µM | 19 µM | 39 µM | 0.9 | 7.1 | 3.7 | 1.9 | 36.7 µM
